Several values for one entry are separate records, joined by “and”; a condition that tells them apart may be missing. Identical values can stand only once.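 Method: 48-hour compound exposure of cells in 96-well plates, five concentrations, linear interpolation of endpoints. At the GI50, growth is halved. TGI: concentration producing complete growth inhibition.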 A value given as a limit tells only on which side of the number the result lay.

Some test systems named below: XF 498 CNS; M19-MEL melanoma; DMS 273 small cell lung; DLD-1 colon; RXF-631 renal; MDA-N; MDA-MB-435; T-47D breast; MCF7 breast.
Common to all, as to test: NCI anticancer screen, dose series, 48 h

Regarding `CSc1nnc(COc2ccc(Cl)cc2)o1`, the TGI in the assay on XF 498 CNS, in the assay on M19-MEL melanoma, in the assay on DMS 273 small cell lung and in the assay on DLD-1 colon was > 100 µM in each case.

As for `Cc1nc(C(N)=S)sc1C(=O)/C=C/c1c(O)ccc2ccccc12`, the TGI was > 100 µM in the assay with XF 498 CNS; > 100 µM in the assay on RXF-631 renal; 19 µM in the assay on M19-MEL melanoma; > 100 µM with DMS 273 small cell lung; > 100 µM in the assay on DLD-1 colon.

Consider `COC(=O)C1(O)CC(=O)CCC1c1ccc(OC)cc1` (centres undefined), for which the TGI with RXF-631 renal, in the assay with DMS 273 small cell lung and in the assay with DLD-1 colon was > 100 µM throughout.

`CCNC(=O)COc1ccc(Cl)cc1Cl`: the TGI in the assay on RXF-631 renal, with M19-MEL melanoma, with DMS 273 small cell lung and in the assay with DLD-1 colon was > 100 µM throughout.

As for `N/N=C1\C(=O)N(CCc2ccccc2)C(=O)C1C(=O)NCCc1ccccc1` (centres undefined), the TGI with XF 498 CNS, with RXF-631 renal, in the assay with M19-MEL melanoma, in the assay with DMS 273 small cell lung and with DLD-1 colon was > 100 µM in each case.

For `Cc1c(C(=O)O)oc2ccc([N+](=O)[O-])cc12`, the TGI in the assay with XF 498 CNS, with RXF-631 renal, with M19-MEL melanoma, in the assay with DMS 273 small cell lung and in the assay on DLD-1 colon was > 100 µM throughout.

As for `CC(C)(C)c1cc(C=C(C#N)C#N)cc(C(C)(C)C)c1O`, the GI50 in the assay on MDA-N was 0.346 µM; with MDA-MB-435, 0.252 µM; in the assay with T-47D breast it was 0.0679 µM. The TGI with MDA-N is 56.7 µM; with XF 498 CNS, 3.13 µM; with DMS 273 small cell lung, 5.51 µM; in the assay on MDA-MB-435, 29.9 µM and 12.4 µM; with T-47D breast, 0.645 µM and 5.07 µM; in the assay with MCF7 breast, 41 µM. The molecule also displayed a TGI in the assay on DLD-1 colon of 42.7 µM.

Consider `CC(C)(Oc1ccc(/C=C/C(=O)c2ccc(Cl)cc2)cc1)C(=O)Nc1c(Cl)cccc1Cl`, for which the TGI in the assay on XF 498 CNS is 37.7 µM; in the assay with RXF-631 renal it was 45.3 µM; with M19-MEL melanoma, 27.1 µM; with DLD-1 colon, 29.2 µM.

For the molecule `CCOC(=O)c1cc2c3c(c(O)c(OC)c2s1)N(C(=O)c1cc2c4c(c(O)c(OC)c2s1)N(C(C)=O)CC4)CC3`, the TGI with XF 498 CNS is 67.8 µM; in the assay on RXF-631 renal it was > 100 µM; with M19-MEL melanoma, > 100 µM; with DMS 273 small cell lung, > 100 µM; in the assay on DLD-1 colon it was > 100 µM.

Regarding `Nc1ncnc2c1ncn2CC(O)CO` (centres undefined), the TGI with RXF-631 renal, with M19-MEL melanoma, in the assay on DMS 273 small cell lung and in the assay with DLD-1 colon was > 100 µM each time.

As to `COc1ccc(C(=O)NCCN(C)C)c2nc3ccccc3nc12`, the TGI in the assay on RXF-631 renal was > 100 µM; with M19-MEL melanoma, 9.9 µM; with DMS 273 small cell lung, > 100 µM; with DLD-1 colon, > 65.4 µM.

For the molecule `C=C(C)C1C/C=C(/C)CCCC2(CCC3=C(CC(C(=C)C)C/C=C(/C)CCC3)O2)C(=O)C1` (centres undefined), the TGI in the assay on XF 498 CNS, in the assay on M19-MEL melanoma, in the assay with DMS 273 small cell lung and in the assay with DLD-1 colon was > 100 µM throughout.

Turning to `COc1ccc(/C(=N\NC(=S)NN)C(c2ccc(OC)cc2)C2C(=O)Oc3ccccc32)cc1` (centres undefined), the GI50 in the assay with XF 498 CNS, in the assay on M19-MEL melanoma, with DMS 273 small cell lung and in the assay with DLD-1 colon was > 100 µM each time. The TGI with XF 498 CNS, in the assay on M19-MEL melanoma, in the assay with DMS 273 small cell lung and in the assay with DLD-1 colon was > 100 µM throughout.

For the molecule `COc1ccc2[nH]c3c(c2c1)[C@H](C)C[C@@H]1C(=O)N(c2ccccc2)C(=O)[C@H]31`, the TGI is 74.1 µM in the assay on XF 498 CNS; 58.7 µM with RXF-631 renal; > 100 µM with M19-MEL melanoma; > 100 µM in the assay on DMS 273 small cell lung; > 100 µM in the assay on DLD-1 colon.

Consider `C[N+](C)(C)CC1CCCCC1O` (centres undefined), for which the TGI in the assay on RXF-631 renal, in the assay on M19-MEL melanoma, with DMS 273 small cell lung and with DLD-1 colon was > 100 µM each time.

With `C=CC(OCC)(OCC)OCC`, the TGI is > 100 µM in the assay with XF 498 CNS; > 100 µM in the assay on RXF-631 renal; > 100 µM in the assay with M19-MEL melanoma; 37.9 µM in the assay with DMS 273 small cell lung; > 100 µM with DLD-1 colon.

For the molecule `COC(=O)C1(C(=O)OC)CC(=O)c2cc3c(cc2-c2c(cc(OC)c(OC)c2OC)C1)OCO3`, the TGI in the assay with RXF-631 renal, in the assay on M19-MEL melanoma, with DMS 273 small cell lung and in the assay on DLD-1 colon was > 211 µM throughout.

Turning to `CCCCN(CC)CC(C(C)=O)c1c(O)c2ccccc2oc1=O` (centres undefined), the TGI in the assay on XF 498 CNS, in the assay with M19-MEL melanoma, in the assay on DMS 273 small cell lung and in the assay with DLD-1 colon was > 100 µM in each case.

`O=c1oc2ccccc2[n+]([O-])c1-c1ccccc1`: the TGI in the assay on XF 498 CNS, with RXF-631 renal, in the assay on M19-MEL melanoma, with DMS 273 small cell lung and in the assay with DLD-1 colon was > 100 µM in each case.

On to `O=C(N/N=C/c1cccc(F)c1)c1ccncc1`, for which the TGI with XF 498 CNS, in the assay with DMS 273 small cell lung and in the assay on DLD-1 colon was > 100 µM throughout.

As to `CCOC(=O)C(NC(=O)c1nc[nH]c1[N+](=O)[O-])C(C)C` (centres undefined), the TGI in the assay on XF 498 CNS is 93.2 µM; with M19-MEL melanoma, > 100 µM; in the assay on DMS 273 small cell lung, > 100 µM; in the assay with DLD-1 colon, > 100 µM.

With `Cn1c2c(c3ccccc31)CCN(CCN1CCN(c3cccc(Cl)c3)CC1)C2=O`, the TGI in the assay on XF 498 CNS is 34.5 µM; in the assay with M19-MEL melanoma, > 100 µM; in the assay with DMS 273 small cell lung it was > 100 µM; in the assay with DLD-1 colon, > 100 µM.

Regarding `Cc1ccccc1C(=O)N1CCN(C(=O)c2ccccc2C)CC1`, the TGI in the assay on XF 498 CNS, in the assay on RXF-631 renal, in the assay with M19-MEL melanoma, in the assay on DMS 273 small cell lung and in the assay with DLD-1 colon was > 100 µM in each case.

On to `C/C(=N/NC(=O)C[N+](C)(C)C)C(CN(C)C)C(=O)Nc1ccccc1` (centres undefined), for which the TGI with XF 498 CNS, in the assay on M19-MEL melanoma, with DMS 273 small cell lung and in the assay with DLD-1 colon was > 100 µM in each case.

On to `C/C(=N\NC(=O)CC#N)c1c(O)cc(C)oc1=O`, for which the TGI in the assay with RXF-631 renal, in the assay on M19-MEL melanoma and with DLD-1 colon was > 100 µM throughout.

As to `CN(C)C(=S)/N=c1\ssc(=S)n1Cc1ccncc1`, the TGI in the assay with XF 498 CNS is 24.9 µM; with RXF-631 renal, 38.4 µM; in the assay on M19-MEL melanoma it was 27.8 µM; in the assay with DMS 273 small cell lung, 76.3 µM; in the assay on DLD-1 colon, 47.4 µM.

Consider `CSC(=NCCc1c[nH]c2ccccc12)NC#N`, for which the TGI with XF 498 CNS, in the assay on M19-MEL melanoma, with DMS 273 small cell lung and in the assay with DLD-1 colon was > 100 µM each time.

Take `Cc1cc(N(CCC#N)CCC#N)ccc1/C=C(\NC(=O)/C=C/c1ccccc1)C(=O)NN`: the TGI in the assay on MDA-N, in the assay on XF 498 CNS, in the assay on M19-MEL melanoma, with DMS 273 small cell lung, in the assay on MDA-MB-435 and in the assay with T-47D breast was > 100 µM in each case. Besides, the TGI in the assay on MCF7 breast and in the assay on DLD-1 colon was > 100 µM each time.

Take `CC(=O)OCC1OC(N2C(=O)C(=O)c3ccccc32)C(OC(C)=O)C(OC(C)=O)C1OC(C)=O` (centres undefined): the TGI in the assay with RXF-631 renal, in the assay with M19-MEL melanoma, with DMS 273 small cell lung and in the assay with DLD-1 colon was > 100 µM in each case.

For the molecule `CC(C)(C)C(=O)[CH-]C(=O)C(C)(C)C.CC(C)(C)C(=O)[CH-]C(=O)C(C)(C)C.CN(C)c1ccc([O-])cc1.CN(C)c1ccc([O-])cc1.[Ti+4]`, the GI50 in the assay with RXF-631 renal was > 100 µM; with M19-MEL melanoma it was 79.2 µM; with DMS 273 small cell lung, > 100 µM; in the assay with DLD-1 colon, > 100 µM. Besides, the TGI in the assay with RXF-631 renal, in the assay on M19-MEL melanoma, in the assay on DMS 273 small cell lung and in the assay on DLD-1 colon was > 100 µM each time.

In the case of `O=C(/C=C/c1ccccc1)c1ccc(NCc2nc3ccccc3[nH]2)cc1`, the TGI with XF 498 CNS was determined as 20.5 µM; in the assay on M19-MEL melanoma, 14.7 µM; in the assay on DMS 273 small cell lung it was 16 µM; in the assay on DLD-1 colon, 15.6 µM.

In the case of `COc1cc2c(cc1OC)C(C(=O)c1cccc(OC)c1OC)C(=O)N(C)CC2` (centres undefined), the TGI in the assay on XF 498 CNS, with RXF-631 renal, with M19-MEL melanoma, with DMS 273 small cell lung and in the assay on DLD-1 colon was > 100 µM throughout.

As to `CSC(=S)N/N=C/c1nccc2ccccc12`, the TGI in the assay on XF 498 CNS was 16.4 µM; in the assay on RXF-631 renal, > 82.9 µM; with M19-MEL melanoma it was > 33.6 µM; in the assay with DMS 273 small cell lung, > 21.8 µM; in the assay with DLD-1 colon, 22.4 µM.

Turning to `CC(=O)N1CCC2(c3ccccc3N(C(C)=O)C2c2ccc(O)cc2)C1C(=O)O` (centres undefined), the TGI with XF 498 CNS, in the assay with M19-MEL melanoma, in the assay on DMS 273 small cell lung and with DLD-1 colon was > 100 µM throughout.

Take `O=[N+]([O-])c1ccc(-c2ccc(-c3csc(Nc4ccccc4)n3)o2)cc1`: the TGI with XF 498 CNS is 32.4 µM; in the assay on M19-MEL melanoma, > 81.6 µM; with DMS 273 small cell lung, 49.4 µM; in the assay with DLD-1 colon, 65.9 µM.

Consider `O=c1c2cc(Br)ccc2nc(CCl)n1-c1ccc(O)c([N+](=O)[O-])c1`, for which the values for the TGI in the assay with XF 498 CNS, in the assay with M19-MEL melanoma and in the assay with DLD-1 colon were 29 µM, 36.2 µM and 33.4 µM, respectively.

The values above are taken from PubChem BioAssay (NCI).
